This note sets out measurements from article PMC3566143, “Pantothenamides Are Potent, On-Target Inhibitors of Plasmodium falciparum Growth When Serum Pantetheinase Is Inactivated” (PLoS ONE, 2013).

One assay concerns P. falciparum PanK. Description: [14C]pantothenate phosphorylation assay with P. falciparum lysate. Type of assay: biochemical, Plasmodium falciparum. The conditions noted are these: 100 µM pantothenamide, 0.2 µM [14C]pantothenate, 10 min. As for the experimental part:
To assess the effect of the pantothenamides on pantothenate phosphorylation by P. falciparum PanK, the phosphorylation of [^14C]pantothenate by P. falciparum lysates was measured in the presence and absence of a single concentration of each pantothenamide. P. falciparum lysate was prepared from trophozoite stage parasites “isolated” from their host erythrocyte by treatment with 0.05% (w/v) saponin (essentially as described by Saliba et al.), and washed (five times) in HEPES-buffered saline (125 mM NaCl, 5 mM KCl, 20 mM D-glucose, 25 mM HEPES, 1 mM MgCl2, pH 7.1). Lysates were prepared as described by van Schalkwyk et al., except that 10 mM potassium phosphate, pH 7.4 (rather than 10 mM Tris, pH 7.4), was used to lyse the cells. Aliquots of lysate were stored at −20°C. The concentration of cell lysates was determined from cell counts made using an improved Neubauer hemocytometer.
[^14C]Pantothenate phosphorylation was assayed using the Somogyi reagent essentially as described by Saliba et al., except that pantothenate phosphorylation was terminated by heat denaturation (rather than acid denaturation) of the protein in reaction aliquots. Briefly, P. falciparum lysate was added to solutions (at 37°C) of 50 mM Tris, 5 mM ATP, 5 mM MgCl2, at pH 7.4, containing [^14C]pantothenate (at a final concentration of 0.01 µCi/mL, or 0.2 µM), and a pantothenamide (at a final concentration of 100 µM) or an equivalent volume of solvent. Typically, lysate prepared from 5.4–6.5×10^7 parasites was present in each mL of reaction solution. Zero phosphorylation control reactions were prepared by adding a corresponding volume of 10 mM potassium phosphate instead of parasite lysate. Following a ten minute incubation at 37°C (a period during which pantothenate phosphorylation increased linearly with time in the absence of inhibitors) 200 µL aliquots of the [^14C]pantothenate phosphorylation reactions were transferred in duplicate to microcentrifuge tubes, and immediately incubated at 95°C for 10 min to terminate phosphorylation. Terminated reaction samples were centrifuged at 15 800×g for 10 min to pellet the denatured protein, before two aliquots of each supernatant (typically 80 µL) were transferred to new microcentrifuge tubes. To one aliquot, 500 µL Somogyi reagent was added, and to the other, 500 µL water was added. The samples were processed for determination of phosphorylated [^14C]pantothenate as described previously.

In assay [1] the test system is erythrocytic stage P. falciparum parasites (strain 3D7). Description: SYBR Green I-based in vitro growth assay (96 h). As to conditions: for IC50: 1 µM pantothenate, 96 h; for effect on parasite growth in fresh Albumax-complete RPMI: fresh medium, up to 200 µM (highest concentration tested). The format is cell-based, Plasmodium falciparum. As to the method: Erythrocytic stage P. falciparum parasites (strain 3D7) were maintained within human erythrocytes in continuous culture essentially as described previously, [25]. P. falciparum-infected erythrocytes were routinely cultured in RPMI 1640 medium supplemented with 25 mM HEPES, 20 mM D-glucose, 200 µM hypoxanthine, 24 mg/L gentamycin and Albumax II (0.6%, w/v), which, hereafter is referred to as Albumax-complete RPMI. For several days prior to carrying out the assays testing the effect of compounds on the growth of P. falciparum in medium supplemented with human serum (instead of Albumax II), the parasites were cultured in the same medium mentioned above, except that human serum (10%, v/v, pooled from different blood donors) was used rather than Albumax II. This medium is hereafter referred to as human serum-complete RPMI.
The in vitro antiplasmodial activity of test compounds was determined using the malaria SYBR Green I-based fluorescence assay described by Smilkstein et al., with minor modifications. Briefly, P. falciparum-infected erythrocytes were incubated in culture medium containing two-fold dilutions of the test compounds in 96-well microtiter plates. Assays were initiated with ring-stage P. falciparum-infected erythrocytes at a hematocrit and parasitemia of 1%. Wells containing infected erythrocytes in the presence of chloroquine (0.25–2 µM) served as zero growth controls and wells containing infected erythrocytes in the absence of chloroquine or test compounds served as 100% parasite growth controls. Plates were incubated at 37°C under an atmosphere of 96% nitrogen, 3% carbon dioxide and 1% oxygen for 96 h, before 100 µL from each well was mixed with 100 µL of SYBR Safe DNA gel stain (0.2 µL/mL) in 20 mM Tris, pH 7.5, 5 mM ethylenediaminetetraacetic acid (EDTA), 0.008% (w/v) saponin, 0.08% (v/v) Triton X-100, in a second 96-well microtitre plate. Fluorescence was measured using a FLUOstar OPTIMA multidetection microplate reader from BMG LABTECH with excitation and emission wavelengths of 490 and 520 nm, respectively. The 50% inhibitory concentration (IC50) of each test compound under each test condition was calculated by fitting the data to a sigmoidal curve (typically y = a/(1+ (x/x0)^b) using nonlinear least squares regression (SigmaPlot, Systat Software) and averaging the IC50 estimates from independent experiments.
The antiplasmodial activity of test compounds was assessed in media that had been subjected to different pre-incubations. “Fresh” medium refers to medium that was stored for a maximum of 48 h at 4°C, and incubated at 37°C for a maximum of 1 h, prior to use. “Aged” medium refers to medium that was stored for a minimum of one week at 4°C and incubated intermittently at 37°C, or medium incubated continuously at 37°C for 40 h soon after preparation. As indicated at the relevant positions within the “Results” section, for some experiments the fresh medium used was, more specifically, medium used immediately following preparation, and the aged medium used was, more specifically, medium that was incubated at 37°C for 40 h immediately prior to use.

Setting [2] is: Plasmodium falciparum, 3D7, 96 h, fresh Albumax-complete RPMI, read-out: IC50 against P. falciparum, fresh medium, 1 μM pantothenate.
Setting [3] is: Plasmodium falciparum, 3D7, aged Albumax-complete RPMI (37°C for 40 h), read-out: IC50 against P. falciparum, aged medium, 1 μM pantothenate.
Where [4] appears, read: fresh Albumax-complete RPMI, IC50 at 100 µM pantothenate / IC50 at 1 µM pantothenate.

Read-outs that look alike come from different tables or passages of the source.

Consider `COc1cc(CNC(=O)CCNC(=O)[C@H](O)C(C)(C)CO)cc(OC)c1OC` [Compound 6], for which, in the assay on P. falciparum PanK, the “Inhibition of pantothenate phosphorylation at 100 μM” value (“Inhibition … at 100 μM” for short) is given as 96 ± 2%. The IC50 in assay [1] (setting [2]) and in assay [1] (setting [3]) was over 200 µM in each case.
Consider `COCCNC(=O)CCNC(=O)[C@H](O)C(C)(C)CO` [Compound 15], for which, in the assay with P. falciparum PanK, the “Inhibition … at 100 μM” value is 100%. The IC50 in assay [1] (setting [2]) and in assay [1] (setting [3]) was over 200 µM throughout. Moreover, in assay [1], the “effect on parasite growth in fresh Albumax-complete RPMI” value (shortened to “effect on parasite growth”) was “lacked antiplasmodial activity”.
Regarding `CCCCCCCNC(=O)CCNC(=O)[C@H](O)C(C)(C)CO` [Compound 2], the “Inhibition … at 100 μM” value in the assay with P. falciparum PanK worked out at 99 ± 1%. In assay [1] (setting [2]), the 50% inhibitory concentration (IC50) is over 200 µM.
`CCOCCNC(=O)CCNC(=O)[C@H](O)C(C)(C)CO` [Compound 22]: in the assay with P. falciparum PanK, the “Inhibition … at 100 μM” value stood at 100%. In addition, the IC50 in assay [1] (setting [2]) was determined as 162 ± 20 µM; in assay [1] (setting [3]), 1.4 ± 0.1 µM.
Take `CC(CCc1ccccc1)NC(=O)CCNC(=O)[C@H](O)C(C)(C)CO` (some centres unmarked) [Compound 5]: the “Inhibition … at 100 μM” value in the assay with P. falciparum PanK stood at 94 ± 3%. For the same molecule, the IC50 in assay [1] (setting [2]) and in assay [1] (setting [3]) was over 200 µM each time.
On to `CCOCCCNC(=O)CCNC(=O)[C@H](O)C(C)(C)CO` [Compound 19], for which the “Inhibition … at 100 μM” value with P. falciparum PanK was 96 ± 4%. Besides, the IC50 in assay [1] (setting [2]) was found to be 49 ± 8 µM; in assay [1] (setting [3]), 0.27 ± 0.06 µM. The “fold-increase in IC50 following supplementation with 100 µM pantothenate, aged medium” value in assay [1] (aged Albumax-complete RPMI, IC50 at 100 µM pantothenate / IC50 at 1 µM pantothenate) came to 24±1 times. For the same molecule, in assay [1] (setting [4]), the “fold-increase in IC50 following supplementation with 100 µM pantothenate, fresh medium” value is given as 1.7±0.4 times.
In the case of `CCCNC(=O)CCNC(=O)[C@H](O)C(C)(C)CO` [Compound 11], in the assay on P. falciparum PanK, the “Inhibition … at 100 μM” value was found to be 100%. Also, the IC50 in assay [1] (setting [2]) was determined as 134 ± 22 µM; in assay [1] (setting [3]), 0.34 ± 0.01 µM.
On the same counts, the results for `CCSCCNC(=O)CCNC(=O)[C@H](O)C(C)(C)CO` [Compound 17] are 95 ± 5%, 44 ± 5 µM and 0.067 ± 0.002 µM.
Turning to `COCCCNC(=O)CCNC(=O)[C@H](O)C(C)(C)CO` [Compound 21], the “Inhibition … at 100 μM” value with P. falciparum PanK is recorded as 98 ± 2%. Besides, the IC50 in assay [1] (setting [2]) stood at 166 ± 18 µM; in assay [1] (setting [3]), 1.9 ± 0.5 µM.
On the same counts, the results for `CCCCCNC(=O)CCNC(=O)[C@H](O)C(C)(C)CO` [Compound 1] are 99 ± 1%, 124 ± 15 µM and 2 ± 0.2 µM.
Consider `CC(C)(CO)[C@@H](O)C(=O)NCCC(=O)NCCO` [Compound 16], for which the “Inhibition … at 100 μM” value with P. falciparum PanK worked out at 100%. Besides, the IC50 in assay [1] (setting [2]) is over 200 µM. Moreover, the “effect on parasite growth” value in assay [1] is “without effect”.
As for `CSCCNC(=O)CCNC(=O)[C@H](O)C(C)(C)CO` [Compound 14], the “Inhibition … at 100 μM” value with P. falciparum PanK is given as 100%. The IC50 in assay [1] (setting [2]) and in assay [1] (setting [3]) was over 200 µM each time. For the same molecule, in assay [1], the “effect on parasite growth” value is “little effect”.
As to `CC1C(NC(=O)CCNC(=O)C(O)C(C)(C)CO)CC2CC1C2(C)C` (centres unmarked) [Compound 10], the “Inhibition … at 100 μM” value with P. falciparum PanK came to 100%. Besides, the IC50 in assay [1] (setting [2]) and in assay [1] (setting [3]) was over 200 µM throughout.
Consider `CC(C)(CO)[C@@H](O)C(=O)NCCC(=O)NCCCO` [Compound 20], for which the “Inhibition … at 100 μM” value in the assay on P. falciparum PanK is reported as 94 ± 6%. Besides, the IC50 in assay [1] (setting [2]) is over 200 µM. In addition, in assay [1], the “effect on parasite growth” value was “without effect”.
In the case of `CC(C)(CO)[C@@H](O)C(=O)NCCC(=O)NCCc1ccccc1` [Compound 3], in the assay with P. falciparum PanK, the “Inhibition … at 100 μM” value stood at 100%. Further, the IC50 in assay [1] (Plasmodium falciparum, 3D7, 96 h, aged Albumax-complete RPMI, read-out: IC50 against P. falciparum in aged medium) is 0.02 ± 0.002 µM.
As for `CC(C)=CCC/C(C)=C/CNC(=O)CCNC(=O)[C@H](O)C(C)(C)CO` [Compound 13], the “Inhibition … at 100 μM” value with P. falciparum PanK is 100%. The IC50 in assay [1] (setting [2]) was found to be 66 ± 4 µM; in assay [1] (setting [3]), 150 ± 5 µM. The “fold-increase in IC50 following supplementation with 100 µM pantothenate, fresh medium” value in assay [1] (setting [4]) was found to be 1±0.1 times.
`CC(C)(CO)[C@@H](O)C(=O)NCCCO` [pantothenol, reference compound]: the inhibition at 2000 µM in assay [1] (Plasmodium falciparum, 3D7, 2 mM, Albumax-complete RPMI supplemented with 100 µM pantothenate, fresh and aged, read-out: inhibition of growth at highest concentration tested with 100 µM pantothenate) was under 50%. In assay [1] (aged medium + additional Albumax II (0.6%, w/v)), the “effect of additional Albumax II on activity in aged medium” value is listed as “unaffected”. In assay [1] (aged vs fresh medium, P = 0.32), the “activity in aged versus fresh Albumax-complete RPMI” value is “comparable in aged and fresh medium”.
As to `CC(C)(CO)[C@@H](O)C(=O)NCCC(=O)N1CCN(Cc2ccccc2)CC1` [Compound 7], the “Inhibition … at 100 μM” value in the assay on P. falciparum PanK was 98 ± 2%. Besides, the IC50 in assay [1] (setting [2]) and in assay [1] (setting [3]) was over 200 µM throughout.
As for `CSCCCNC(=O)CCNC(=O)[C@H](O)C(C)(C)CO` [Compound 18], the “Inhibition … at 100 μM” value in the assay with P. falciparum PanK was found to be 98 ± 2%. Also, the IC50 is 76 ± 12 µM in assay [1] (setting [2]) and 0.23 ± 0.06 µM in assay [1] (setting [3]).
As for `COc1ccc(CCNC(=O)CCNC(=O)[C@H](O)C(C)(C)CO)cc1OC` [Compound 4], the “Inhibition … at 100 μM” value in the assay with P. falciparum PanK was found to be 100%. For the same molecule, the IC50 in assay [1] (setting [2]) and in assay [1] (setting [3]) was over 200 µM in each case.
As for `COc1ccc(CNC(=O)CCNC(=O)[C@H](O)C(C)(C)CO)cc1` [Compound 9], in the assay with P. falciparum PanK, the “Inhibition … at 100 μM” value worked out at 99 ± 1%. In assay [1] (setting [2]), the IC50 was over 200 µM.
Consider `CC(C)(CO)[C@@H](O)C(=O)NCCC(=O)NCCN1CCOCC1` [Compound 8], for which the “Inhibition … at 100 μM” value with P. falciparum PanK stood at 94 ± 5%. Also, the IC50 in assay [1] (setting [2]) and in assay [1] (setting [3]) was over 200 µM each time.

As usually defined, the IC50 is the concentration that inhibits the measured activity by half.
